The values that follow come from patent US10138237B2, “1,2,4-triazolo[4,3-a]pyridine compounds and their use as positive allosteric modulators of mGluR2 receptors” (Janssen Pharmaceutica NV, priority 2014, dated 2018).

One data set has as its target T1, human mGlu2 receptor (Homo sapiens, UniProt Q14416).
T1 construct: expressed in transfected cells; host or cells: CHO cells (membrane preparation)
The data set can be described thus: [35S]GTPγS binding assay, hmGluR2 PAM. Particulars: in presence of EC20 glutamate; for GTPγS - hmGluR2 PAM Emax / Emax: maximal % effect relative to the control glutamate response; for EC50: membranes from CHO cells with human mGlu2 receptor, -log EC50 in M, read-out: GTPγS - hmGluR2 PAM pEC50 (converted). Format: biochemical. The source says: The compounds provided in the present invention are positive allosteric modulators of mGluR2. These compounds appear to potentiate glutamate responses by binding to an allosteric site other than the glutamate binding site. The response of mGluR2 to a concentration of glutamate is increased when compounds of Formula (I) are present. Compounds of Formula (I) are expected to have their effect substantially at mGluR2 by virtue of their ability to enhance the function of the receptor. The effects of positive allosteric modulators tested at mGluR2 using the [^35S]GTPγS binding assay method described below and which is suitable for the identification of such compounds, and more particularly the compounds according to Formula (I), are shown in Table 8.
[^35S]GTPγS Binding Assay
The [^35S]GTPγS binding assay is a functional membrane-based assay used to study G-protein coupled receptor (GPCR) function whereby incorporation of a non-hydrolysable form of GTP, [^35S]GTPγS (guanosine 5′-triphosphate, labelled with […] ^35S), is measured. The G-protein α subunit catalyzes the exchange of guanosine 5′-diphosphate (GDP) by guanosine triphosphate (GTP) and on activation of the GPCR by an agonist, [^35S]GTPγS, becomes incorporated and cannot be cleaved to continue the exchange cycle (Harper (1998) Current Protocols in Pharmacology 2.6.1-10, John Wiley & Sons, Inc.). […] Here we describe the use of the [^35S]GTPγS binding assay using membranes from cells transfected with the human mGlu2 receptor and adapted from Schaffhauser et al. (Molecular Pharmacology, 2003, […]) for the detection of the positive allosteric modulation (PAM) properties of the compounds of this invention.
CHO-cells were cultured to pre-confluence and stimulated with 5 mM butyrate for 24 h. Cells were then collected by scraping in PBS and cell suspension was centrifuged (10 min at 4000 RPM in benchtop centrifuge). Supernatant was discarded and pellet gently resuspended in 50 mM Tris-HCl, pH 7.4 by mixing with a vortex and pipetting up and down. The suspension was centrifuged at 16,000 RPM (Sorvall RC-5C plus rotor SS-34) for 10 minutes and the supernatant discarded. The pellet was homogenized in 5 mM Tris-HCl, pH 7.4 using an ultra-turrax homogenizer and centrifuged again (18,000 RPM, 20 min, 4° C.). The final pellet was resuspended in 50 mM Tris-HCl, pH 7.4 and stored at −80° C. in appropriate aliquots before use. Protein concentration was determined by the Bradford method (Bio-Rad, USA) with bovine serum albumin as standard.
Measurement of mGluR2 positive allosteric modulatory activity of test compounds was performed as follows. Test compounds and glutamate were diluted in assay buffer containing 10 mM HEPES acid, 10 mM HEPES salt, pH 7.4, 100 mM NaCl, 3 mM MgCl2 and 10 μM GDP. Human mGlu2 receptor-containing membranes were thawed on ice and diluted in assay buffer supplemented with 14 μg/ml saponin. Membranes were pre-incubated with compound alone or together with a predefined (˜EC20) concentration of glutamate (PAM assay) for 30 min at 30° C. After addition of [^35S]GTPγS (f.c. 0.1 nM), assay mixtures were shaken briefly and further incubated to allow [^35S]GTPγS incorporation on activation (30 minutes, 30° C.). Final assay mixtures contained 7 μg of membrane protein in 10 mM HEPES acid, 10 mM HEPES salt, pH 7.4, 100 mM NaCl, 3 mM MgCl2, 10 μM GDP and 2 μg/ml saponin. Total reaction volume was 200 μl. Reactions were terminated by rapid filtration through Unifilter-96 GF/B plates (Perkin Elmer, Massachusetts, USA) using a 96-well filtermate universal harvester. Filters were washed 6 times with ice-cold 10 mM NaH2PO4/10 mM Na2HPO4, pH 7.4. Filters were then air-dried, and 40 μl of liquid scintillation cocktail (Microscint-O) was added to each well. Membrane-bound radioactivity was counted in a Microplate Scintillation and Luminescence Counter from Perkin Elmer. […]
On the technique in general: Binding of GTPγS marks nucleotide exchange on a G protein.

For data set [1], the system named is 6 Hz (32 mA, 3 s, corneal) limbic seizure in mice. Kind of data set: Anticonvulsant studies - 6 Hz test in mice. Format: in vivo. The following applies: Mus musculus, Score ≤ 2 (protected), 32 mA for 3 s. As for the experimental part:
Anticonvulsant Studies—6 Hz Test in Mice
At a predefined interval after drug treatment (standard: 0.5 h). individual mice were challenged with sufficient current (32 mA for 3 s; delivered through corneal electrodes) to elicit a limbic seizure. The manifestations of the “psychomotor” seizure were first described by Toman (Toman, J. E. P., 1951, “Neuropharmacologic considerations in psychic seizures” Neurology, 1, 444-460; Toman, J. E. P., Evertett, G. M., Richards, R. K., 1952, “The search for new drugs against epilepsy” Tex. Rep. Biol. Med. 10, 96-104). […] This may be characterized by immobility, or a lack of awareness regarding its environment as it goes directly into behaviours 2 and 3 (forepaw clonus or facial automatisms). The stun posture is most often upright, but the mouse may also fall on its side during a seizure; the fore limbs are often crossed and the hind limbs are spread wide apart. The “stunning” may occasionally be preceded by a few seconds of running with a rolling gait. 2) Forepaw clonus or automatism: usually resembles the mouse repeatedly raising its forepaw and then stomping it onto the ground. This is generally repeated several times, but must be repeated at least twice to be considered present. 3) Facial automatism: in the mouse best resembles jaw chomping or air biting; this also must occur at least twice to be considered present. 4) Elevated or Straub tail, which must be elevated to greater than a 45 degree angle to be considered present. The duration of the seizure varies from 5 to 75 s; at the end of the seizure, the animal rather suddenly resumes normal locomotion and exploratory behaviour. Each of the four above mentioned behaviours was scored as either absent (0) or present (1).

Data set [2] deals with major depressive disorder with anxiety symptoms. Particulars: adjunctive administration; adults with major depressive disorder with anxiety symptoms; cited from earlier work.
Data set [3] has as its system smoking cessation-induced deficits. The following applies: versus placebo; cited from earlier work.
Data set [4] concerns S-ketamine-induced negative symptoms. Particulars: healthy volunteers and patients with predominant negative symptoms of schizophrenia; cited from earlier work.

T1 sequence (Q14416 19-872): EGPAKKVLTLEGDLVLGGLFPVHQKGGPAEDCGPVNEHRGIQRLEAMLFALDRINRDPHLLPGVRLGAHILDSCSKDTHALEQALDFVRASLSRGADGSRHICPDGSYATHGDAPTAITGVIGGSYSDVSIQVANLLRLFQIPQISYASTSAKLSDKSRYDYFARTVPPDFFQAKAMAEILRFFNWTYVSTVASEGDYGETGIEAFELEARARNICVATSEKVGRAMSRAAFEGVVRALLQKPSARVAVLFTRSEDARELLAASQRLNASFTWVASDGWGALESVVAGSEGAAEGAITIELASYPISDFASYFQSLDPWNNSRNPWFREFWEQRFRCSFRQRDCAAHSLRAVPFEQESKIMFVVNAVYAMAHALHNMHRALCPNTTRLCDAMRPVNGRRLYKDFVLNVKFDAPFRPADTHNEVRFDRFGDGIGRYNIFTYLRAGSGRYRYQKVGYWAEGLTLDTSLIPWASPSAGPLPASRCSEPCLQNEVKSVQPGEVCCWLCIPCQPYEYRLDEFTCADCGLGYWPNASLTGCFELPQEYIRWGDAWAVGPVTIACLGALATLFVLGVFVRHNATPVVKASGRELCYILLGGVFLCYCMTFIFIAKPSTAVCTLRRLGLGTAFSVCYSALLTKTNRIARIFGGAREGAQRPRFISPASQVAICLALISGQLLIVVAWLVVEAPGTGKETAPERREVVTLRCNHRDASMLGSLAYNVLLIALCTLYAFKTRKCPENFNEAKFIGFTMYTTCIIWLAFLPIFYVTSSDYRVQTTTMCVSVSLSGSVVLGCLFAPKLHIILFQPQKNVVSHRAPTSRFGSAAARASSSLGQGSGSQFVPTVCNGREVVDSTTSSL

For the compound `CCOc1nc(N2CCC(c3ccn4c(CC5CC5)nnc4c3C(F)(F)F)C2)ncc1Cl` (single isomer, unassigned) [Co. No. 1a, 7-[(3*R)-1-(5-chloro-4-ethoxy-pyrimidin-2-yl)pyrrolidin-3-yl]-3-(cyclopropylmethyl)-8-(trifluoromethyl)-[1,2,4]triazolo[4,3-a]pyridine], the melting point (usually the temperature, or range, at which the solid turns liquid) came to 167.64 °C. At human mGlu2 receptor, the “GTPγS - hmGluR2 PAM Emax” value was 148.44% and the EC50 is 0.214 µM.
For the compound `CCOc1nc(N2CCC(c3ccn4c(CC5CC5)nnc4c3C(F)(F)F)C2)ncc1Cl` (single isomer, unassigned) [Co. No. 1b, 7-[(3*S)-1-(5-chloro-4-ethoxy-pyrimidin-2-yl)pyrrolidin-3-yl]-3-(cyclopropylmethyl)-8-(trifluoromethyl)-[1,2,4]triazolo[4,3-a]pyridine], the melting point worked out at 168.29 °C. In addition, the ED50 (commonly the midpoint of the dose-response relation) in data set [1] (route PO) was 20 mg/kg. Besides, the ED50 in data set [1] (route SC) turned out to be 3.79 mg/kg. Also, at human mGlu2 receptor, the “GTPγS - hmGluR2 PAM Emax” value is 277.87% and the EC50 is 0.0038 µM.
Turning to `CCOCc1nnc2c(C(F)(F)F)c(C3CCN(c4ncc(Cl)c(OCC)n4)C3)ccn12` (single isomer, unassigned) [Co. No. 2a, 7-[(3*R)-1-(5-chloro-4-ethoxy-pyrimidin-2-yl)pyrrolidin-3-yl]-3-(ethoxymethyl)-8-(trifluoromethyl)-[1,2,4]triazolo[4,3-a]pyridine], at human mGlu2 receptor (listed as 2a), the “GTPγS - hmGluR2 PAM Emax” value is recorded as 226.905%. The EC50 at human mGlu2 receptor was 2.09 µM.
Consider `CCOCc1nnc2c(C(F)(F)F)c(C3CCN(c4ncc(Cl)c(OCC)n4)C3)ccn12` (single isomer, unassigned) [Co. No. 2b, 7-[(3*S)-1-(5-chloro-4-ethoxy-pyrimidin-2-yl)pyrrolidin-3-yl]-3-(ethoxymethyl)-8-(trifluoromethyl)-[1,2,4]triazolo[4,3-a]pyridine], for which the 50% effect level in data set [1] (route PO) (ED50) was put at a dose of 20 mg/kg. Further, the “GTPγS - hmGluR2 PAM Emax” value on human mGlu2 receptor (listed as 2b) came to 295.62%. The EC50 at human mGlu2 receptor is 0.00977 µM.
As for `CCOc1nc(N2CCC(c3ccn4c(CC5CC5)nnc4c3C(F)(F)F)C2)ncc1Cl` (stereo not shown) [Co. No. 1, 7-[1-(5-chloro-4-ethoxy-pyrimidin-2-yl)pyrrolidin-3-yl]-3-(cyclopropylmethyl)-8-(trifluoromethyl)-[1,2,4]triazolo[4,3-a]pyridine], at human mGlu2 receptor, the Emax (commonly the maximal effect, on the per cent scale that the assay sets) was determined as 234% and the EC50 is 0.00589 µM.
As for `CCOCc1nnc2c(C(F)(F)F)c(C3CCN(c4ncc(Cl)c(OCC)n4)C3)ccn12` (stereo not shown) [Co. No. 2, 7-[1-(5-chloro-4-ethoxy-pyrimidin-2-yl)pyrrolidin-3-yl]-3-(ethoxymethyl)-8-(trifluoromethyl)-[1,2,4]triazolo[4,3-a]pyridine], the melting point amounted to 153.86 °C. Further, on human mGlu2 receptor, the Emax amounted to 345% and the EC50 was 0.017 µM.
As for `CCCCn1ccc(N2CCC(c3ccccc3)CC2)c(Cl)c1=O` [JNJ-40411813/ADX71149], in data set [2], the “efficacy on several secondary outcome measures of both depression and anxiety” value is “showed efficacy signals”; the “efficacy on the primary outcome measure” value was “no efficacy signal was detected”. Besides, the “effect on craving and smoking cessation-induced deficits in attention and episodic memory” value in data set [3] is “reduce craving and improve smoking cessation-induced deficits in attention and episodic memory”. For the same compound, the “efficacy in S-ketamine-induced negative symptoms” value in data set [4] was “showed an efficacy signal”.
